Laboratory results taken from patent US9868772B2 (INDIANA UNIVERSITY RESEARCH AND TECHNOLOGY CORPORATION, priority 2012, dated 2018).
Numbered stars: 1 amine (or outer) side, 2 acyl side, 3 side chain; on linkers, the order of the positions; unused ones are H or OH. Square brackets hold non-standard residues; d marks the D form. Side chains are listed from the residue outwards. Peptide text beside a SMILES is read from it. * marks the point of attachment. γGlu = O=C(O)[C@H](CCC(=O)[*:2])N[*:1]; Desaminotyrosyl = O=C(CCc1ccc(O)cc1)*; Palmitoyl = CCCCCCCCCCCCCCCC(=O)*

Columns and labels:
Test in all cases: cAMP induction, firefly luciferase reporter assay in HEK293 cells co-transfected with receptor
Type in all cases: cell-based
GIP receptor = target: T1, GIP receptor (Homo sapiens, UniProt P48546)
T1 construct: expressed in transfected cells; host or cells: HEK293
T1 sequence (P48546 22-466): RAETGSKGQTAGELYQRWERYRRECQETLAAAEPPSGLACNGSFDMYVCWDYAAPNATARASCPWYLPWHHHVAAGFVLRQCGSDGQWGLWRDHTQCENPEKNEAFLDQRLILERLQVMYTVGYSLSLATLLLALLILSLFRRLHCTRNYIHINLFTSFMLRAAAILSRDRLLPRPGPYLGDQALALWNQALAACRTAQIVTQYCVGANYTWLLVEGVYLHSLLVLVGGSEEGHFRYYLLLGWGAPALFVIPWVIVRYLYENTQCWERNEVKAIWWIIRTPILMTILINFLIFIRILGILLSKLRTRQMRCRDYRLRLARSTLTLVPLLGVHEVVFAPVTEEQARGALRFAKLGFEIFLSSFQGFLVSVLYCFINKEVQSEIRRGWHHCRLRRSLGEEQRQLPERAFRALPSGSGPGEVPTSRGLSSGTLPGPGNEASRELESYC
Experimental: (§1) The ability of glucagon analogs to induce cAMP was measured in a firefly luciferase-based reporter assay. […] At the end of the incubation 100 microliters of LucLite luminescence substrate reagent (Perkin-Elmer, Wellesley, Mass.) were added to each well. […] Effective 50% concentrations were calculated by using Origin software (OriginLab, Northampton, Mass.

GLP-1 receptor = target: T2, GLP-1 receptor (Homo sapiens, UniProt P43220)
T2 construct: expressed in transfected cells; host or cells: HEK293
T2 sequence (P43220 24-463): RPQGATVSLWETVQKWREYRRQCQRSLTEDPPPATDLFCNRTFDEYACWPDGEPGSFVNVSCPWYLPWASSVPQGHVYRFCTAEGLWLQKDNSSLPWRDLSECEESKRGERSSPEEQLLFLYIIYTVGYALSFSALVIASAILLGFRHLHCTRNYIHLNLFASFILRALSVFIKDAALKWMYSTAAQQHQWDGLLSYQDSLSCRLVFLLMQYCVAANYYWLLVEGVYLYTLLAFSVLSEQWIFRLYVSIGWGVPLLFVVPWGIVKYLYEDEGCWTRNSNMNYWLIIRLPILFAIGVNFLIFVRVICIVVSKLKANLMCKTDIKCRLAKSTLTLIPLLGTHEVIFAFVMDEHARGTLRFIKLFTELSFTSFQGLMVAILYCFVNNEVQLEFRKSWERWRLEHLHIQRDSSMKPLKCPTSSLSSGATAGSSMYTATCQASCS
Experimental: as §1

glucagon receptor = target: T3, glucagon receptor (Homo sapiens, UniProt P47871)
T3 construct: expressed in transfected cells; host or cells: HEK293
T3 sequence (P47871 26-477): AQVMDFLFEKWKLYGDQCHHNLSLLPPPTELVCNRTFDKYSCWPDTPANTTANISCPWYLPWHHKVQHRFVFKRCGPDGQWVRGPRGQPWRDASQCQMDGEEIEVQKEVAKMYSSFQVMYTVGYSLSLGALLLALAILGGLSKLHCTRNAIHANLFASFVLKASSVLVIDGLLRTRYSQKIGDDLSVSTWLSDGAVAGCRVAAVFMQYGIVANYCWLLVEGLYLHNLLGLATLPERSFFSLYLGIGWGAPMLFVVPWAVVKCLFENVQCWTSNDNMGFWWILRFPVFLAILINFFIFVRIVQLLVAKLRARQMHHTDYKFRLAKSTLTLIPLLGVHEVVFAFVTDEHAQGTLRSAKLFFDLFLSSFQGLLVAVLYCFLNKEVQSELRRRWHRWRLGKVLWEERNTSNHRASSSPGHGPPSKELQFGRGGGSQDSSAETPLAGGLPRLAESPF
Experimental: as §1

[1] = Table 1, analogs of SEQ ID NO: 37
[2] = Table 2, analogs of SEQ ID NO: 10

| SMILES | EC50 (GIP receptor; [1]) [nM] | EC50 (GLP-1 receptor; [1]) [nM] | EC50 (glucagon receptor; [1]) [nM] | EC50 (GIP receptor; [2]) [nM] | EC50 (GLP-1 receptor; [2]) [nM] | EC50 (glucagon receptor; [2]) [nM] |
| --- | --- | --- | --- | --- | --- | --- |
| CCCCCCCCCCCCCCCC(=O)N[C@@H](CCC(=O)NCCCC[C@H](NC(=O)[C@H](CC(=O)O)NC(=O)[C@H](CO)NC(=O)[C@@H](NC(=O)[C@H](Cc1ccccc1)NC(=O)[C@@H](NC(=O)CNC(=O)[C@H](CCC(N)=O)NC(=O)CNC(=O)[C@H](CCC(N)=O)NC(C)=O)[C@@H](C)O)[C@@H](C)O)C(=O)N[C@@H](CO)C(=O)N[C@@H](CCCCN)C(=O)N[C@@H](Cc1ccc(O)cc1)C(=O)N[C@@H](CC(C)C)C(=O)N[C@@H](CC(=O)O)C(=O)N[C@@H](CCC(=O)O)C(=O)N[C@@H](CCCNC(=N)N)C(=O)N[C@@H](C)C(=O)N[C@@H](C)C(=O)N[C@@H](CCC(N)=O)C(=O)N[C@@H](CC(=O)O)C(=O)N[C@@H](Cc1ccccc1)C(=O)N[C@H](C(=O)N[C@@H](CCC(N)=O)C(=O)N[C@@H](Cc1c[nH]c2ccccc12)C(=O)N[C@@H](CC(C)C)C(=O)N[C@@H](CC(C)C)C(=O)N[C@@H](CCC(=O)O)C(=O)NCC(=O)NCC(=O)N1CCC[C@H]1C(=O)N[C@@H](CO)C(=O)N[C@@H](CO)C(=O)NCC(=O)N[C@@H](C)C(=O)N1CCC[C@H]1C(=O)N1CCC[C@H]1C(=O)N1CCC[C@H]1C(=O)N[C@@H](CO)C(N)=O)C(C)C)C(=O)O [compound 34] (Ac-QGQGTFTSDK([γGlu-Palmitoyl])SKYLDERAAQDFVQWLLEGGPSSGAPPPS-NH2) | 0.436 | 0.611 | 0.163 | – | – | – |
| CCCCCCCCCCCCCCCC(=O)N[C@@H](CCC(=O)NCCCC[C@H](NC(=O)[C@H](CC(=O)O)NC(=O)[C@H](CO)NC(=O)[C@@H](NC(=O)[C@H](Cc1ccccc1)NC(=O)[C@@H](NC(=O)CNC(=O)[C@H](CCC(=O)O)NC(=O)[C@H](C)NC(=O)CCc1ccc(O)cc1)[C@@H](C)O)[C@@H](C)O)C(=O)N[C@@H](CO)C(=O)N[C@@H](CCCCN)C(=O)N[C@@H](Cc1ccc(O)cc1)C(=O)N[C@@H](CC(C)C)C(=O)N[C@@H](CC(=O)O)C(=O)N[C@@H](CCC(=O)O)C(=O)N[C@@H](CCCNC(=N)N)C(=O)N[C@@H](C)C(=O)N[C@@H](C)C(=O)N[C@@H](CCC(N)=O)C(=O)N[C@@H](CC(=O)O)C(=O)N[C@@H](Cc1ccccc1)C(=O)N[C@H](C(=O)N[C@@H](CCC(N)=O)C(=O)N[C@@H](Cc1c[nH]c2ccccc12)C(=O)N[C@@H](CC(C)C)C(=O)N[C@@H](CC(C)C)C(=O)N[C@@H](CCC(=O)O)C(=O)NCC(=O)NCC(=O)N1CCC[C@H]1C(=O)N[C@@H](CO)C(=O)N[C@@H](CO)C(=O)NCC(=O)N[C@@H](C)C(=O)N1CCC[C@H]1C(=O)N1CCC[C@H]1C(=O)N1CCC[C@H]1C(=O)N[C@@H](CO)C(N)=O)C(C)C)C(=O)O [compound 145] | – | – | – | 0.003 | 0.003 | 3.73 |
| CCCCCCCCCCCCCCCC(=O)N[C@@H](CCC(=O)NCCCC[C@H](NC(=O)[C@H](CC(=O)O)NC(=O)[C@H](CO)NC(=O)[C@@H](NC(=O)[C@H](Cc1ccccc1)NC(=O)[C@@H](NC(=O)CNC(=O)[C@H](CCC(N)=O)NC(=O)[C@H](C)NC(=O)[C@@H](Cc1cccs1)NC(C)=O)[C@@H](C)O)[C@@H](C)O)C(=O)N[C@@H](CO)C(=O)N[C@@H](CCCCN)C(=O)N[C@@H](Cc1ccc(O)cc1)C(=O)N[C@@H](CC(C)C)C(=O)N[C@@H](CC(=O)O)C(=O)N[C@@H](CCC(=O)O)C(=O)N[C@@H](CCCNC(=N)N)C(=O)N[C@@H](C)C(=O)N[C@@H](C)C(=O)N[C@@H](CCC(N)=O)C(=O)N[C@@H](CC(=O)O)C(=O)N[C@@H](Cc1ccccc1)C(=O)N[C@H](C(=O)N[C@@H](CCC(N)=O)C(=O)N[C@@H](Cc1c[nH]c2ccccc12)C(=O)N[C@@H](CC(C)C)C(=O)N[C@@H](CC(C)C)C(=O)N[C@@H](CCC(=O)O)C(=O)NCC(=O)NCC(=O)N1CCC[C@H]1C(=O)N[C@@H](CO)C(=O)N[C@@H](CO)C(=O)NCC(=O)N[C@@H](C)C(=O)N1CCC[C@H]1C(=O)N1CCC[C@H]1C(=O)N1CCC[C@H]1C(=O)N[C@@H](CO)C(N)=O)C(C)C)C(=O)O [compound 17] | 0.011 | 0.005 | 0.008 | – | – | – |
| CCCCCCCCCCCCCCCC(=O)NCCCC[C@H](NC(=O)[C@H](CO)NC(=O)[C@@H]1CCCN1C(=O)[C@@H]1CCCN1C(=O)[C@@H]1CCCN1C(=O)[C@H](C)NC(=O)CNC(=O)[C@H](CO)NC(=O)[C@H](CO)NC(=O)[C@@H]1CCCN1C(=O)CNC(=O)CNC(=O)[C@H](CCC(=O)O)NC(=O)[C@H](CC(C)C)NC(=O)[C@H](CC(C)C)NC(=O)[C@H](Cc1c[nH]c2ccccc12)NC(=O)[C@H](CCC(N)=O)NC(=O)[C@@H](NC(=O)[C@H](Cc1ccccc1)NC(=O)[C@H](CC(=O)O)NC(=O)[C@H](CCC(N)=O)NC(=O)[C@H](C)NC(=O)[C@H](C)NC(=O)[C@H](CCCNC(=N)N)NC(=O)[C@H](CCC(=O)O)NC(=O)[C@H](CC(=O)O)NC(=O)[C@H](CC(C)C)NC(=O)[C@H](Cc1ccc(O)cc1)NC(=O)[C@H](CCCCN)NC(=O)[C@H](CO)NC(=O)[C@H](Cc1ccc(O)cc1)NC(=O)[C@H](CC(=O)O)NC(=O)[C@H](CO)NC(=O)[C@@H](NC(=O)[C@H](Cc1ccccc1)NC(=O)[C@@H](NC(=O)CNC(=O)[C@H](CCC(N)=O)NC(=O)[C@H](C)NC(=O)CCc1ccc(O)cc1)[C@@H](C)O)[C@@H](C)O)C(C)C)C(=O)NCC(N)=O [compound 157] (Desaminotyrosyl-AQGTFTSDYSKYLDERAAQDFVQWLLEGGPSSGAPPPSK(Palmitoyl)G-NH2) | – | – | – | 0.059 | 0.013 | 0.047 |
| CCCCCCCCCCCCCCCC(=O)N[C@@H](CCC(=O)NCCCC[C@H](NC(=O)[C@H](CC(=O)O)NC(=O)[C@H](CO)NC(=O)[C@@H](NC(=O)[C@H](Cc1ccccc1)NC(=O)[C@@H](NC(=O)CNC(=O)[C@@H](CCC(N)=O)NC(=O)[C@H](C)NC(=O)[C@H](Cc1ccc(O)cc1)NC(C)=O)[C@@H](C)O)[C@@H](C)O)C(=O)N[C@@H](CO)C(=O)N[C@@H](CCCCN)C(=O)N[C@@H](Cc1ccc(O)cc1)C(=O)N[C@@H](CC(C)C)C(=O)N[C@@H](CC(=O)O)C(=O)N[C@@H](CCC(=O)O)C(=O)N[C@@H](CCCNC(=N)N)C(=O)N[C@@H](C)C(=O)N[C@@H](C)C(=O)N[C@@H](CCC(N)=O)C(=O)N[C@@H](CC(=O)O)C(=O)N[C@@H](Cc1ccccc1)C(=O)N[C@H](C(=O)N[C@@H](CCC(N)=O)C(=O)N[C@@H](Cc1c[nH]c2ccccc12)C(=O)N[C@@H](CC(C)C)C(=O)N[C@@H](CC(C)C)C(=O)N[C@@H](CCC(=O)O)C(=O)NCC(=O)NCC(=O)N1CCC[C@H]1C(=O)N[C@@H](CO)C(=O)N[C@@H](CO)C(=O)NCC(=O)N[C@@H](C)C(=O)N1CCC[C@H]1C(=O)N1CCC[C@H]1C(=O)N1CCC[C@H]1C(=O)N[C@@H](CO)C(N)=O)C(C)C)C(=O)O [compound 158] (Ac-YA[dQ]GTFTSDK([γGlu-Palmitoyl])SKYLDERAAQDFVQWLLEGGPSSGAPPPS-NH2) | – | – | – | 0.069 | 0.349 | 0.416 |
| CCCCCCCCCCCCCCCC(=O)N[C@@H](CCC(=O)NCCCC[C@H](NC(=O)[C@H](CC(=O)O)NC(=O)[C@H](CO)NC(=O)[C@@H](NC(=O)[C@H](Cc1ccccc1)NC(=O)[C@@H](NC(=O)CNC(=O)[C@H](CCC(=O)O)NC(=O)[C@H](C)NC(=O)[C@@H](Cc1c[nH]cn1)NC(C)=O)[C@@H](C)O)[C@@H](C)O)C(=O)N[C@@H](CO)C(=O)N[C@@H](CCCCN)C(=O)N[C@@H](Cc1ccc(O)cc1)C(=O)N[C@@H](CC(C)C)C(=O)N[C@@H](CC(=O)O)C(=O)N[C@@H](CCC(=O)O)C(=O)N[C@@H](CCCNC(=N)N)C(=O)N[C@@H](C)C(=O)N[C@@H](C)C(=O)N[C@@H](CCC(N)=O)C(=O)N[C@@H](CC(=O)O)C(=O)N[C@@H](Cc1ccccc1)C(=O)N[C@H](C(=O)N[C@@H](CCC(N)=O)C(=O)N[C@@H](Cc1c[nH]c2ccccc12)C(=O)N[C@@H](CC(C)C)C(=O)N[C@@H](CC(C)C)C(=O)N[C@@H](CCC(=O)O)C(=O)NCC(=O)NCC(=O)N1CCC[C@H]1C(=O)N[C@@H](CO)C(=O)N[C@@H](CO)C(=O)NCC(=O)N[C@@H](C)C(=O)N1CCC[C@H]1C(=O)N1CCC[C@H]1C(=O)N1CCC[C@H]1C(=O)N[C@@H](CO)C(N)=O)C(C)C)C(=O)O [compound 148] | – | – | – | 0.007 | 0.002 | 0.178 |
| CCCCCCCCCCCCCCCC(=O)N[C@@H](CCC(=O)N[C@@H](CCC(=O)NCCCC[C@H](NC(=O)[C@H](CO)NC(=O)[C@@H]1CCCN1C(=O)[C@@H]1CCCN1C(=O)[C@@H]1CCCN1C(=O)[C@H](C)NC(=O)CNC(=O)[C@H](CO)NC(=O)[C@H](CO)NC(=O)[C@@H]1CCCN1C(=O)CNC(=O)CNC(=O)[C@H](CCC(=O)O)NC(=O)[C@H](CC(C)C)NC(=O)[C@H](CC(C)C)NC(=O)[C@H](Cc1c[nH]c2ccccc12)NC(=O)[C@H](CCC(N)=O)NC(=O)[C@@H](NC(=O)[C@H](Cc1ccccc1)NC(=O)[C@H](CC(=O)O)NC(=O)[C@H](CCC(N)=O)NC(=O)[C@H](C)NC(=O)[C@H](C)NC(=O)[C@H](CCCNC(=N)N)NC(=O)[C@H](CCC(=O)O)NC(=O)[C@H](CC(=O)O)NC(=O)[C@H](CC(C)C)NC(=O)[C@H](Cc1ccc(O)cc1)NC(=O)[C@H](CCCCN)NC(=O)[C@H](CO)NC(=O)[C@H](Cc1ccc(O)cc1)NC(=O)[C@H](CC(=O)O)NC(=O)[C@H](CO)NC(=O)[C@@H](NC(=O)[C@H](Cc1ccccc1)NC(=O)[C@@H](NC(=O)CNC(=O)[C@H](CCC(N)=O)NC(=O)[C@H](C)NC(=O)CCc1ccc(O)cc1)[C@@H](C)O)[C@@H](C)O)C(C)C)C(=O)NCC(N)=O)C(=O)O)C(=O)O [compound 160] (Desaminotyrosyl-AQGTFTSDYSKYLDERAAQDFVQWLLEGGPSSGAPPPSK([γGlu-γGlu-Palmitoyl])G-NH2) | – | – | – | 0.086 | 0.022 | 0.049 |
